The term GI50 denotes the concentration giving 50% growth inhibition.

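A five-concentration, 48-hour dose response in 96-well plates underlies each endpoint, interpolated linearly between surrounding concentrations. GI50: concentration for 50% inhibition of growth.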 The source made the active and inactive calls. Rule as the data show it: active = GI50 up to about 1.1 µM and inactive = higher. A value given as a limit tells only on which side of the number the result lay.

Data on 10 compounds can be found in ChEMBL document CHEMBL1201862, “PubChem BioAssay data set” (2004).

Assay in all cases: DTP human tumour cell line panel, 48 h
The test system of assay [1] is A498.
Assay [2] concerns BT-549.
For assay [3], the system named is COLO 205.
For assay [4], the system named is DU-145.
In assay [5] the test system is Hs-578T.
Assay [6] relates to K562.
The subject of assay [7] is KM12.
Assay [8] concerns LOX IMVI.
Assay [9] concerns MDA-MB-435.
Assay [10] relates to MOLT-4.
The subject of assay [11] is NCI/ADR-RES.
The test system of assay [12] is OVCAR-3.
Assay [13] deals with PC-3.
The subject of assay [14] is RPMI-8226.
For assay [15], the system named is SK-MEL-2.
For assay [16], the system named is SK-MEL-5.
Assay [17] has as its system SK-OV-3.
Assay [18] concerns TK-10.
In assay [19] the test system is UACC-257.
In assay [20] the test system is CCRF-CEM.

Take `Nc1ncnc2c1ncn2CCCCC(=O)O`: the GI50 in assay [1], in assay [2], in assay [3], in assay [4], in [5] and in assay [6] was > 100 µM (inactive) in each case. Also, the GI50 in assay [7], in assay [8], in assay [9], in assay [10], in assay [11] and in [12] was > 100 µM (inactive) in each case. The GI50 in assay [13], in assay [14], in assay [15], in assay [16], in [17] and in assay [18] was > 100 µM (inactive) each time. Also, the GI50 in assay [19] was > 100 µM (inactive).
In the case of `CC1(C)CC(=O)C(C(c2cccc(O)c2O)C2C(=O)CC(C)(C)CC2=O)C(=O)C1`, the GI50 in assay [1] was > 100 µM (inactive); in assay [2] it was > 100 µM (inactive); in assay [20] it was 20.1 µM (inactive); in [3], > 100 µM (inactive); in [4], > 100 µM (inactive); in assay [5] it was 74.5 µM (inactive). Moreover, the GI50 in [6] is 92.9 µM (inactive); in assay [7], > 100 µM (inactive); in assay [8], 81.8 µM (inactive); in assay [9], 91 µM (inactive); in assay [10] it was 30.3 µM (inactive); in assay [11], > 100 µM (inactive). Moreover, the GI50 in assay [12] is 97.7 µM (inactive); in [13], > 100 µM (inactive); in assay [14], > 100 µM (inactive); in [15], 76.6 µM (inactive); in [16] it was > 100 µM (inactive); in assay [17], > 100 µM (inactive). The GI50 in assay [18] and in assay [19] was > 100 µM (inactive) each time.
Take `c1ccc2c[n+](CCCCCCCCCC[n+]3ccc4ccccc4c3)ccc2c1`: the GI50 in [1] was > 10 µM (inactive); in assay [2], 2.11 µM (inactive); in assay [20], > 10 µM (inactive); in assay [3], 4.76 µM (inactive); in [4], > 4.81 µM (inactive); in assay [5], 9.91 µM (inactive). Also, the GI50 in [6] was 2.04 µM (inactive); in assay [7], > 5.68 µM (inactive); in [8], > 10 µM (inactive); in [9], > 10 µM (inactive); in [11], > 10 µM (inactive); in assay [12], > 4.35 µM (inactive). Also, the GI50 is > 7.52 µM (inactive) in assay [13]; > 10 µM (inactive) in assay [14]; > 10 µM (inactive) in [15]; 2.66 µM (inactive) in [16]; > 10 µM (inactive) in assay [17]; > 10 µM (inactive) in assay [18]. For the same compound, in assay [19], the GI50 is 3.48 µM (inactive).
`CC(C)=CCC[C@]1(C)CC[C@]2(C)C3CCC(=C(C)C)[C@@H](CCCO)[C@]3(C)CC[C@@]2(C)C1` (some centres undefined): the GI50 was > 100 µM (inactive) in assay [1]; > 100 µM (inactive) in [2]; 36.9 µM (inactive) in assay [20]; > 100 µM (inactive) in [3]; 34 µM (inactive) in [4]; > 100 µM (inactive) in assay [5]. The GI50 was 57.9 µM (inactive) in assay [7]; > 100 µM (inactive) in [9]; 39.2 µM (inactive) in assay [10]; > 100 µM (inactive) in assay [11]; 47.1 µM (inactive) in assay [12]; 35.1 µM (inactive) in assay [13]. For the same compound, the GI50 in [14] is 26.5 µM (inactive); in assay [15], 18.8 µM (inactive); in assay [16], > 100 µM (inactive); in assay [17] it was > 100 µM (inactive); in assay [18], 20.2 µM (inactive); in [19] it was 24 µM (inactive).
`Clc1ccc(CCN[C@H]2CCCC[C@H]2N2CCCC2)cc1Cl`: the GI50 in assay [1] is 15.8 µM (inactive); in assay [2] it was 26.2 µM (inactive); in assay [20] it was 30.7 µM (inactive); in assay [3], 13.6 µM (inactive); in [4], 21.8 µM (inactive); in assay [5] it was 39.6 µM (inactive). The GI50 in [6] was 24.2 µM (inactive); in assay [7] it was 17.2 µM (inactive); in assay [8], 16 µM (inactive); in assay [9], 18.5 µM (inactive); in assay [10] it was 24.4 µM (inactive); in assay [11] it was 21.4 µM (inactive). Also, the GI50 was 19.6 µM (inactive) in [12]; 27.9 µM (inactive) in assay [13]; 25.2 µM (inactive) in assay [14]; 20.8 µM (inactive) in assay [15]; 14.6 µM (inactive) in assay [16]; 22.8 µM (inactive) in assay [17]. Moreover, the values for the GI50 in assay [18] and in assay [19] were 7.19 µM (inactive) and 12 µM (inactive), respectively.
For `C=CC(Cl)(CBr)CCC(Br)C(C)(C)Cl` (centres undefined), the GI50 in assay [1] was 14.1 µM (inactive); in [2], 21.4 µM (inactive); in assay [20], 1.89 µM (inactive); in [3], 15.9 µM (inactive); in [4] it was 19.7 µM (inactive); in assay [5], 35.4 µM (inactive). The GI50 in assay [6] was 14.9 µM (inactive); in assay [9], 14.2 µM (inactive); in [10] it was 3.23 µM (inactive); in assay [11] it was 22.1 µM (inactive); in assay [12] it was 17.5 µM (inactive); in assay [13], 17.5 µM (inactive). The GI50 in [14] was 7.38 µM (inactive); in assay [15] it was 19.2 µM (inactive); in [16], 13.1 µM (inactive); in assay [17], 41.9 µM (inactive); in [18] it was 23.2 µM (inactive); in assay [19], 14.3 µM (inactive).
Regarding `CN(C)CCNC(=O)c1cccc2c(NCCN(C)C)c3ccccc3nc12`, the GI50 is 1.94 µM (inactive) in [1]; 7.59 µM (inactive) in assay [2]; 2 µM (inactive) in [20]; 1.92 µM (inactive) in [3]; 3.82 µM (inactive) in assay [4]; 2.66 µM (inactive) in assay [5]. Moreover, the GI50 in [6] is 1.73 µM (inactive); in assay [7], 2.79 µM (inactive); in assay [8], 1.55 µM (inactive); in assay [9] it was 2.94 µM (inactive); in assay [10], 1 µM (active); in assay [11] it was 7.78 µM (inactive). Moreover, the GI50 was 2.39 µM (inactive) in assay [12]; 2.42 µM (inactive) in assay [13]; 2.41 µM (inactive) in assay [14]; 5.28 µM (inactive) in assay [15]; 3.48 µM (inactive) in assay [16]; 7.4 µM (inactive) in assay [17]. The figures for the GI50 in assay [18] and in [19] were 3.24 µM (inactive) and 5.14 µM (inactive), respectively.
`c1c[nH]c(-c2ccc(-c3ccc[nH]3)c3nsnc23)c1`: the GI50 in assay [1] is > 76.6 µM (inactive); in assay [2], 27 µM (inactive); in assay [20], 15.4 µM (inactive); in assay [3], 1.53 µM (inactive); in assay [4] it was > 56.8 µM (inactive); in assay [5], 35.9 µM (inactive). In addition, the GI50 in assay [6] is > 26.8 µM (inactive); in assay [7], 0.217 µM (active); in assay [8], > 100 µM (inactive); in [9], > 48.1 µM (inactive); in assay [10], > 30.3 µM (inactive); in [11], > 51.6 µM (inactive). For the same compound, the GI50 in assay [12] was 11.3 µM (inactive); in assay [13], > 41.1 µM (inactive); in [14], > 27.4 µM (inactive); in [15], 44.3 µM (inactive); in assay [16], > 42.9 µM (inactive); in assay [17], > 68.1 µM (inactive). For the same compound, the values for the GI50 in [18] and in [19] were 0.182 µM (active) and > 61 µM (inactive), respectively.
Take `Cc1n[nH]c(=O)c2cc(-c3ccccc3)[nH]c12`: the GI50 is 25.9 µM (inactive) in assay [1]; 91.4 µM (inactive) in assay [2]; 48.2 µM (inactive) in assay [20]; 27.7 µM (inactive) in [3]; 94.8 µM (inactive) in assay [4]; 26.4 µM (inactive) in assay [5]. For the same compound, the GI50 in assay [6] is 38.6 µM (inactive); in assay [7], 88.5 µM (inactive); in [8], 58.7 µM (inactive); in assay [9], 51.9 µM (inactive); in [10] it was 17.6 µM (inactive); in [11], 57.8 µM (inactive). Further, the GI50 in [12] was 54.1 µM (inactive); in assay [13], 34.5 µM (inactive); in assay [14] it was 37.6 µM (inactive); in assay [15], 31 µM (inactive); in [16] it was 41.6 µM (inactive); in assay [17], > 100 µM (inactive). Further, the GI50 in [18] was 59.3 µM (inactive); in assay [19], 49.8 µM (inactive).
On to `COc1ccc2c(-c3csc(-c4c[nH]c5ccccc45)n3)c[nH]c2c1`, for which the GI50 in [1] was 8.65 µM (inactive); in assay [2], 11.8 µM (inactive); in assay [20], 4.36 µM (inactive); in assay [3] it was 6.59 µM (inactive); in assay [4] it was 9.18 µM (inactive); in [5], 12.5 µM (inactive). Moreover, the GI50 was 3.44 µM (inactive) in [6]; 3.21 µM (inactive) in assay [7]; 2.75 µM (inactive) in assay [8]; 13.8 µM (inactive) in assay [9]; 3.86 µM (inactive) in [10]; 6.61 µM (inactive) in assay [11]. Further, the GI50 in [12] was 13.9 µM (inactive); in assay [13] it was 4.7 µM (inactive); in assay [14] it was 3.77 µM (inactive); in assay [15] it was 14.5 µM (inactive); in assay [16] it was 7.18 µM (inactive); in assay [17] it was 17.7 µM (inactive). The GI50 in assay [18] is 9.2 µM (inactive); in assay [19], 12.7 µM (inactive).
